Laboratory results: doi:10.1101/2024.12.05.627101v1 (biorxiv, 2024)
Blank lines part the entries; values can stand above or below the compound they belong to.

Columns and labels:
[1] = biological target: T1, human mGlu5 (hmGlu5) (Homo sapiens, UniProt P41594); assay: iCa2+ mobilisation; format: cell-based
[2] = biological target: T1, human mGlu5 (hmGlu5); assay: cell-based; set-up: species or system HEK293A; details: HEK293-A, read-out: iCa2+ human mGlu5 Emax
[3] = biological target: T1, human mGlu5 (hmGlu5); assay: whole-cell [3H]methoxy-PEPy inhibition binding; format: cell-based
[4] = biological target: T1, human mGlu5 (hmGlu5); assay: whole-cell [3H]methoxy-PEPy inhibition binding; format: cell-based; remark: listed apart in the source
[5] = biological target: T1, human mGlu5 (hmGlu5); assay: IP1 accumulation; format: cell-based
[6] = biological target: T1, human mGlu5 (hmGlu5); assay: IP1 accumulation; format: cell-based; remark: listed apart in the source
[7] = biological target: T1, human mGlu5 (hmGlu5); assay: whole-cell saturation radioligand binding; format: cell-based

T1 sequence (P41594 21-1180 isoform P41594-2): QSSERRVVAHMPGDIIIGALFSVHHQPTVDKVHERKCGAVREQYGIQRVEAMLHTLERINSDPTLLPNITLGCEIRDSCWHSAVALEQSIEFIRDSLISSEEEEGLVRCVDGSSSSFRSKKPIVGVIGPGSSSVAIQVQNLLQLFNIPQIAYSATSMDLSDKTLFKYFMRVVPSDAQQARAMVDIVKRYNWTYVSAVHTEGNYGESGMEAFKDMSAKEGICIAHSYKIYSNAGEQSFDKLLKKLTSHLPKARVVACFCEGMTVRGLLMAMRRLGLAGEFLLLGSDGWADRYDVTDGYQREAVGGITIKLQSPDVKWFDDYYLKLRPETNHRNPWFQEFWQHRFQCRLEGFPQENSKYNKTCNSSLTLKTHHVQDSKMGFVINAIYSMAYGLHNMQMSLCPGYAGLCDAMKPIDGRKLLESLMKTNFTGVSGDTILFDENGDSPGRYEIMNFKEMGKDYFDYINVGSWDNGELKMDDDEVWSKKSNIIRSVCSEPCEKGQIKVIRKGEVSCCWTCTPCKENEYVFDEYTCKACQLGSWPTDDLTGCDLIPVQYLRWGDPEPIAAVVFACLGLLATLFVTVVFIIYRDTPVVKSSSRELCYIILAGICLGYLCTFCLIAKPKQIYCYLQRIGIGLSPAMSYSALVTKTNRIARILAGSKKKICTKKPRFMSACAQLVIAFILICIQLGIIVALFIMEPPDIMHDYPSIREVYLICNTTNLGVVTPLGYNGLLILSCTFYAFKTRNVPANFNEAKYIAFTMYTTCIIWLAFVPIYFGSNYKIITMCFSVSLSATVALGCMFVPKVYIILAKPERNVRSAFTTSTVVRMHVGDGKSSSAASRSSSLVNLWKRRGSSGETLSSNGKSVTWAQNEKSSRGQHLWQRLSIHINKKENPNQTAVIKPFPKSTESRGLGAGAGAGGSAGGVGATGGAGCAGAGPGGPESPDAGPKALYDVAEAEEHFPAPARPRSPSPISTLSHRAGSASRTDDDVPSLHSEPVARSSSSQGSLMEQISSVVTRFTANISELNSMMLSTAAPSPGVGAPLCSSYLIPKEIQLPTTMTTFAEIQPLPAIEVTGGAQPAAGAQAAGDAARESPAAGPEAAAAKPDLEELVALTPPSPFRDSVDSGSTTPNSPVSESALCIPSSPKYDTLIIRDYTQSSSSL

IC50 [5]: 115 nM
Kd [4]: 224 nM
Structure (SMILES): N#Cc1cc(F)cc(C(=O)Nc2cccc(Cl)c2F)c1 [VU0366248, N-(3-chloro-2-fluorophenyl)-3-cyano-5-fluorobenzamide]

Ki [3]: 1.41 µM
EC50 [6]: 661 nM
Structure (SMILES): O=C(c1ccc(F)cc1)N1CCc2nc(COc3ccccc3)oc2C1 [VU0409551, (4-fluorophenyl)(2-(phenoxymethyl)-6,7-dihydrooxazolo[5,4-c]pyridin-5(4H)-yl)methanone]

Kd [4]: 35.5 nM
EC50 [1]: 275 nM
Emax [2]: 69.5 ± 4.5%
Structure (SMILES): C[C@@H](NC(=O)c1ccc(C#Cc2cccc(F)c2)cn1)C(C)(C)O [VU0424465, (R)-5-((3-fluorophenyl)ethynyl)-N-(3-hydroxy-3-methylbutan-2-yl)picolinamide]

Continued, compound first:

Structure (SMILES): N[C@H](C(=O)O)c1cc(O)cc(O)c1 [DHPG, (S)-3,5-dihydroxyphenylglycine]
EC50 [1]: 1100 nM
Emax [2]: 80.3 ± 2.5%

Structure (SMILES): O=C(COCc1ccc(F)cc1)N1CCN(c2ccc(F)cc2F)CC1 [DPFE, 1-(4-(2,4-difluorophenyl)piperazin-1-yl)-2-((4-fluorobenzyl)oxy)ethanone]
Ki [3]: 7.41 µM

Structure (SMILES): CCCCOc1ccc(C(=O)Nc2ccc(F)cc2F)cc1 [VU0357121, 4-butoxy-N-(2,4-difluorophenyl)benzamide]
Kd [4]: 537 nM

Structure (SMILES): COc1cncc(C#Cc2ccccn2)c1 [[3H]methoxy-PEPy]
Kd [7]: 4.57 nM

Structure (SMILES): CN1CC(=O)N=C1NC(=O)Nc1cccc(Cl)c1 [fenobam, N-(3-chlorophenyl)-3-[(2e)-1-methyl-4-oxoimidazo-lidin-2-ylidene]urea]
IC50 [5]: 55 nM
Kd [4]: 81.3 nM

Structure (SMILES): N[C@@H](CCC(=O)O)C(=O)O [glutamate]
Emax [2]: 103 ± 3.9%
